Tests used:
[1] = system: GFP-α-tubulin expressing SCC114 cells; assay: Treatment of GFP-α-tubulin expressing SCC114 cells with griseofulvin analogues (inhibition of centrosomal clustering); type: cell-based; settings: Homo sapiens, Table 1, analogues diluted 100 micromolar to 10 nanomolar
Procedure: Cell Culture. All cell lines were cultured in Dulbecco's modified Eagle's Medium (DMEM; PAA Laboratories, Pasching, Austria) supplemented with 10% FCS (PAA). SCC114 cells stably expressing GFP-α-tubulin were generated by transfection (Eugene 6, Roche Diagnostics, Mannheim, Germany) of the transgene in pEGFP-C1 (Clontech, Heidelberg, Germany) and maintained under selective pressure by addition of geniticin (Invitrogen, Karlsruhe, Germany) Primary normal human epidermal keratinocytes (NHEK; PromoCell, Heidelberg, Germany) were cultured in Keratinocyte Growth Medium 2 (PromoCell). When indicated a griseofulvin analogue was added to the culture medium. The griseofulvin analogue was dissolved in DMSO (Sigma). In all experiments, the final DMSO concentration was 0.1%.
Treatment of GFP-α-tubulin expressing SCC114 cells with griseofulvin analogues. Analogues were dissolved in DMSO/water and diluted to span a concentration range of 100 micromolar to 10 nanomolar.

Row | IC50 [1] [µM] | melting point [°C] | Structure (SMILES)
1 | 3.3 | 166 to 168 | COc1cc(OC)c2c(c1Cl)O[C@]1(C2=O)C(OCc2ccc(I)cc2)=CC(=O)C[C@H]1C [Compound 2, (2S,6′R)-(7-Chloro-4,6-dimethoxy-benzofuran-3-one)-2-spiro-1′-(2′-(4-iodobenzyloxy)-6′-methyl-cyclohex-2′-ene-4′-one)]
2 | 1.5 |  | COc1cc(OC)c2c(c1Cl)O[C@]1(C2=O)C(Oc2ccccc2)=CC(=O)C[C@H]1C [Compound 10, (2S,6′R)-(7-Chloro-4,6-dimethoxy-benzofuran-3-one)-2-spiro-1′-(6′-methyl-2′-phenoxy-cyclohex-2′-ene-4′-one)]
3 | 4.7 |  | COc1cc(OC)c2c(c1Cl)O[C@]1(C2=O)C(OCc2ccc(CBr)cc2)=CC(=O)C[C@H]1C [Compound 7, (2S,6′R)-(7-Chloro-4,6-dimethoxy-benzofuran-3-one)-2-spiro-1′-(6′-methyl-2′-(4-bromo-methylbenzyloxy)-cyclohex-2′-ene-4′-one)]
4 |  | 171 to 174 | COc1cc(OC)c2c(c1Cl)O[C@]1(C2=O)C(OCc2cccc(I)c2)=CC(=O)C[C@H]1C [Compound 3, (2S,6′R)-(7-Chloro-4,6-dimethoxy-benzofuran-3-one)-2-spiro-1′-(2′-(3-iodobenzyloxy)-6′-methyl-cyclohex-2′-ene-4′-one)]
5 | 2.1 | 98 to 100 | CCCOC1=C(I)C(=O)C[C@@H](C)[C@]12Oc1c(Cl)c(OC)cc(OC)c1C2=O [Compound 11, (2S,6′R)-(7-Chloro-4,6-dimethoxy-benzofuran-3-one)-2-spiro-1′-(3′-iodo-6′-methyl-2′-propoxy-cyclohex-2′-ene-4′-one)]
6 | 9.1 |  | COc1cc(OC)c2c(c1Cl)O[C@]1(C2=O)C(OCc2ncc(C)c([N+](=O)[O-])c2C)=CC(=O)C[C@H]1C [Compound 8, (2S,6′R)-(7-Chloro-4,6-dimethoxy-benzofuran-3-one)-2-spiro-1′-(6′-methyl-2′-((3,5-dimethyl-4-nitro-pyrid-2-yl)methyloxy)-cyclohex-2′-ene-4′-one)]
7 | 0.9 | 176 to 178 | COc1cc(OC)c2c(c1Cl)O[C@]1(C2=O)C(OCc2ccc(C)cc2)=CC(=O)C[C@H]1C [Compound 5, (2S,6′R)-(7-Chloro-4,6-dimethoxy-benzofuran-3-one)-2-spiro-1′-(6′-methyl-2′-(4-methylbenzyloxy)-cyclohex-2′-ene-4′-one)]
8 | 5.8 | 167 to 169 | COc1cc(OC)c2c(c1Cl)O[C@]1(C2=O)C(OCc2ccccc2I)=CC(=O)C[C@H]1C [Compound 4, (2S,6′R)-(7-Chloro-4,6-dimethoxy-benzofuran-3-one)-2-spiro-1′-(2′-(2-iodobenzyloxy)-6′-methyl-cyclohex-2′-ene-4′-one)]
9 | 3.4 | 173 to 175 | COc1cc(OC)c2c(c1Cl)O[C@]1(C2=O)C(OCc2ccc(Cl)cc2)=CC(=O)C[C@H]1C [Compound 1, (2S,6′R)-(7-Chloro-4,6-dimethoxy-benzofuran-3-one)-2-spiro-1′-(2′-(4-chlorobenzyloxy)-6′-methyl-cyclohex-2′-ene-4′-one)]
10 | 3.2 |  | COc1cc(OC)c2c(c1Cl)O[C@]1(C2=O)C(OCc2ccc(-c3ccccc3)cc2)=CC(=O)C[C@H]1C [Compound 9, (2S,6′R)-(7-Chloro-4,6-dimethoxy-benzofuran-3-one)-2-spiro-1′-(2′-(4-biphenylmethoxy)-6′-methyl-cyclohex-2′-ene-4′-one)]
11 | 1.2 |  | COc1cc(OC)c2c(c1Cl)O[C@]1(C2=O)C(OCc2ccc(CO)cc2)=CC(=O)C[C@H]1C [Compound 6, (2S,6′R)-(7-Chloro-4,6-dimethoxy-benzofuran-3-one)-2-spiro-1′-(6′-methyl-2′-(4-hydroxymethylbenzyloxy)-cyclohex-2′-ene-4′-one)]
